Converted amounts (≈) assume the structure as drawn.
Assays:
Assay in all cases: MIC, broth micro dilution assay (NCCLS)
Type in all cases: cell-based
[1] = system: Enterococcus faecalis A20688; conditions: Mueller-Hinton medium, 35° C., 18 hours
Summary of the method: (§1)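 Broth microdilution in Mueller-Hinton medium, with a final inoculum of about 5×10^5 cfu/well. Plates incubated at 35 °C for 18 hours in ambient air. MIC = lowest drug concentration preventing visible growth.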

[2] = system: Staphylococcus aureus A15090; conditions: Mueller-Hinton medium, 35° C., 18 hours
Summary of the method: as §1

[3] = system: Streptococcus pneumoniae A28272; conditions: 50% Mueller-Hinton medium and 50% Todd Hewitt medium, 35° C., 18 hours

Compound | MIC (μg/mL) Enterococcus faecalis A20688 [1] | MIC (μg/mL) Staphylococcus aureus A15090 [2] | MIC (μg/mL) Streptococcus pneumoniae A28272 [3]
C=C(NC(=O)c1csc(-c2nc3c(cc2OCc2ccccc2)-c2nc(cs2)C(=O)NC(C(C)O)C(=O)NC(=C(C)OC)c2nc(cs2)C(=O)NC2c4nc(cs4)C(=O)NC(COC(=O)c4c5c6c(cccc6n4OCOCC[Si](C)(C)C)COC(=O)C(OC4CC(C)(O)C(N(C)C)C(C)O4)C2OC5)c2nc-3cs2)n1)C(N)=O (stereo not drawn) [Example 79] | 1.0 µg/mL (≈ 0.603 µM) | 1.0 µg/mL (≈ 0.603 µM) | 0.015 µg/mL (≈ 0.00905 µM)
C=C(NC(=O)c1csc(-c2nc3c(cc2OCOP(=O)([O-])OC(C)(C)C)-c2nc(cs2)C(=O)NC(C(C)O)C(=O)NC(=C(C)OC)c2nc(cs2)C(=O)NC2c4nc(cs4)C(=O)NC(COC(=O)c4c5c6c(cccc6n4OCOP(=O)([O-])OC(C)(C)C)COC(=O)C(OC4CC(C)(O)C(N(C)C)C(C)O4)C2OC5)c2nc-3cs2)n1)C(N)=O.[Na+].[Na+] (stereo not drawn) [Example 81] | >128 µg/mL | 128 µg/mL | 8 µg/mL
COC(C)=C1NC(=O)C(C(C)O)NC(=O)c2csc(n2)-c2cc(OC)c(-c3nc(C(N)=O)cs3)nc2-c2csc(n2)C2COC(=O)c3c4c5c(cccc5n3OC)COC(=O)C(OC3CC(C)(O)C(N(C)C)C(C)O3)C(OC4)C(NC(=O)c3csc1n3)c1nc(cs1)C(=O)N2 (stereo not drawn) [Example 83] | 0.06 µg/mL (≈ 0.043 µM) | 0.03 µg/mL (≈ 0.0215 µM) | 0.03 µg/mL (≈ 0.0215 µM)
C=C(NC(=O)c1csc(-c2nc3c(cc2OS(=O)(=O)c2cn(C)cn2)-c2nc(cs2)C(=O)NC(C(C)O)C(=O)NC(=C(C)OC)c2nc(cs2)C(=O)NC2c4nc(cs4)C(=O)NC(COC(=O)c4c5c6c(cccc6n4OCCCNS(=O)(=O)c4cn(C)cn4)COC(=O)C(OC4CC(C)(O)C(N(C)C)C(C)O4)C2OC5)c2nc-3cs2)n1)C(N)=O (stereo not drawn) [Example 87] | 2.0 µg/mL (≈ 1.12 µM) | 1.0 µg/mL (≈ 0.561 µM) | 0.06 µg/mL (≈ 0.0337 µM)

Other lines, results leading:

MIC (μg/mL) Enterococcus faecalis A20688 [1] | MIC (μg/mL) Staphylococcus aureus A15090 [2] | MIC (μg/mL) Streptococcus pneumoniae A28272 [3] | Compound
16 µg/mL (≈ 9.85 µM) | 64 µg/mL (≈ 39.4 µM) | 0.06 µg/mL (≈ 0.0369 µM) | C=C(NC(=O)c1csc(-c2nc3c(cc2OCC(N)=O)-c2nc(cs2)C(=O)NC(C(C)O)C(=O)NC(=C(C)OC)c2nc(cs2)C(=O)NC2c4nc(cs4)C(=O)NC(COC(=O)c4c5c6c(cccc6n4OCOCC[Si](C)(C)C)COC(=O)C(OC4CC(C)(O)C(N(C)C)C(C)O4)C2OC5)c2nc-3cs2)n1)C(N)=O (stereo not drawn) [Example 78]
0.06 µg/mL (≈ 0.0376 µM) | 0.03 µg/mL (≈ 0.0188 µM) | 0.015 µg/mL (≈ 0.00939 µM) | COC(C)=C1NC(=O)C(C(C)O)NC(=O)c2csc(n2)-c2cc(OCC(=O)OC(C)(C)C)c(-c3nc(C(N)=O)cs3)nc2-c2csc(n2)C2COC(=O)c3c4c5c(cccc5n3OCC(=O)OC(C)(C)C)COC(=O)C(OC3CC(C)(O)C(N(C)C)C(C)O3)C(OC4)C(NC(=O)c3csc1n3)c1nc(cs1)C(=O)N2 (stereo not drawn) [Example 82]
4.0 µg/mL (≈ 2.32 µM) | 4.0 µg/mL (≈ 2.32 µM) | 0.5 µg/mL (≈ 0.29 µM) | C=C(NC(=O)c1csc(-c2nc3c(cc2OP(=O)(O)OCCCl)-c2nc(cs2)C(=O)NC(C(C)O)C(=O)NC(=C(C)OC)c2nc(cs2)C(=O)NC2c4nc(cs4)C(=O)NC(COC(=O)c4c5c6c(cccc6n4OP(=O)(O)OCCCl)COC(=O)C(OC4CC(C)(O)C(N(C)C)C(C)O4)C2OC5)c2nc-3cs2)n1)C(N)=O (stereo not drawn) [Example 86]

— US7022667B2, “O-derivatized nocathiacin derivatives” (Bristol-Myers Squibb Company, priority 2002, dated 2006)
